Source: ChEMBL document CHEMBL3813611, “Antiprotozoal activity of bicycles featuring a dimethylamino group at their bridgehead” (Bioorg Med Chem, 2016)

What was measured:
L6 = experiment: Cytotoxicity against rat L6 cells assessed as reduction in cell viability after 72 hrs by Alamar blue assay; format: cell-based; conditions: L6, 72 h
[1] = Selectivity index, ratio of IC50 for rat L6 cells to IC50 for Trypanosoma brucei rhodesiense STIB 900 bloodstream forms; format: toxicity, cell-based; conditions: read-out: Ratio IC50
[2] = test system: Trypanosoma brucei rhodesiense; experiment: Antitrypanosomal activity against Trypanosoma brucei rhodesiense STIB 900 bloodstream forms after 72 hrs by Alamar blue assay; format: functional, organism-based; conditions: STIB 900, 72 h
Plasmodium falciparum = experiment: Antiplasmodial activity against chloroquine/pyrimethamine resistant Plasmodium falciparum K1 infected in human red blood cells after 48 hrs by [3H]hypoxanthine incorporation assay; format: functional, organism-based
[3] = Selectivity index, ratio of IC50 for rat L6 cells to IC50 for chloroquine/pyrimethamine resistant Plasmodium falciparum K1 infected in human red blood cells; format: toxicity, cell-based; conditions: read-out: Ratio IC50

SMILES	IC50 (L6)	selectivity ratio [1]	IC50 [2]	IC50 (Plasmodium falciparum)	selectivity ratio [3]
CN1CCN(CCCN2CC3C(c4ccccc4)CC(N(C)C)(CC3c3ccccc3)C2)CC1 (racemic)	0.2 µM	1.82	0.11 µM	0.15 µM	1.33
C[C@@H]1CC[C@H]2[C@@H](C)C(=O)O[C@@H]3O[C@@]4(C)CC[C@@H]1[C@]32OO4 [ARTEMISININ]				0.0064 µM	70400
CN1CCN(CCN2CC3C(c4ccccc4)CC(N(C)C)(CC3c3ccccc3)C2)CC1 (racemic)	5.26 µM	19.5	0.27 µM	0.25 µM	21
CN(C)C12CC(c3ccccc3)C(CN(C(=O)CN3CCCCC3)C1)C(c1ccccc1)C2 (racemic)	12.1 µM	5.05	2.4 µM	0.4 µM	30.3
CN(C)C12CC(NC(=O)CN3CCCCC3)C(C(c3ccccc3)C1)C(c1ccccc1)C2 (racemic)	7.16 µM	14.9	0.48 µM	0.11 µM	65.1
CN(C)C12CC(c3ccccc3)C(CN(CCCN3CCCCC3)C1)C(c1ccccc1)C2 (racemic)	1.75 µM	11.7	0.15 µM	0.19 µM	9.21
CN(C)C12CCN(C(=O)CN3CCCCC3)C(C(c3ccccc3)C1)C(c1ccccc1)C2 (stereo not drawn)	141 µM	14.9	9.47 µM	1.72 µM	82.2
CN(C)C12CC(c3ccccc3)C(CN(CCN3CCCC3)C1)C(c1ccccc1)C2 (racemic)	5.58 µM	10.3	0.54 µM	0.29 µM	19.2
CN(C)C12CC(c3ccccc3)C(CN(C(=O)CN3CCCC3)C1)C(c1ccccc1)C2 (racemic)	12.6 µM	5.82	2.16 µM	0.24 µM	52.4
CN1CCN(CC(=O)N2CC3C(c4ccccc4)CC(N(C)C)(CC3c3ccccc3)C2)CC1 (racemic)	9.25 µM	6.29	1.47 µM	0.43 µM	21.5
Nc1nc(N)nc(Nc2ccc([As]3SCC(CO)S3)cc2)n1 (stereo not drawn) [MELARSOPROL]		2000			
CN(C)C12CC(c3ccccc3)C(CN(CCN3CCCCC3)C1)C(c1ccccc1)C2 (racemic)	2.92 µM	24.3	0.12 µM	0.09 µM	32.4
CCN(CC)CC(=O)N1CCC2(N(C)C)CC(c3ccccc3)C1C(c1ccccc1)C2 (stereo not drawn)	89.6 µM	17.2	5.21 µM	1.3 µM	68.9
CN(C)C12CC(c3ccccc3)C(CN(C(=O)CCN3CCCC3)C1)C(c1ccccc1)C2 (racemic)	11.7 µM	7.46	1.57 µM	0.22 µM	53.3
CN(C)C12CC(c3ccccc3)C(CN(C(=O)CCN3CCCCC3)C1)C(c1ccccc1)C2 (racemic)	12.4 µM	10.1	1.23 µM	0.052 µM	238
CCN(CC)CCN1CCC2(N(C)C)CC(c3ccccc3)C1C(c1ccccc1)C2 (racemic)	101 µM	56.5	1.79 µM	0.71 µM	142
CCN(CC)CCC(=O)N1CC2C(c3ccccc3)CC(N(C)C)(CC2c2ccccc2)C1 (racemic)	15.4 µM	20.6	1.46 µM	0.39 µM	39.6
CN(C)C12CC(NC(=O)CCN3CCCCC3)C(C(c3ccccc3)C1)C(c1ccccc1)C2 (racemic)	7.85 µM	5.27	1.49 µM	0.69 µM	11.4
CCN(CC)CCCN1CC2C(c3ccccc3)CC(N(C)C)(CC2c2ccccc2)C1 (racemic)	3.27 µM	7.11	0.46 µM	0.065 µM	50.3
CN(C)C12CCN(CCN3CCCCC3)C(C(c3ccccc3)C1)C(c1ccccc1)C2 (racemic)	135 µM	51.6	2.62 µM	0.87 µM	155
CN(C)C12CC(c3ccccc3)C(CN(CCCN3CCCC3)C1)C(c1ccccc1)C2 (racemic)	1.55 µM	9.69	0.16 µM	0.15 µM	10.3
CN1CCN(CCC(=O)N2CC3C(c4ccccc4)CC(N(C)C)(CC3c3ccccc3)C2)CC1 (racemic)	13 µM	8.54	1.52 µM	0.18 µM	72.1
